Several values for one entry are separate records, joined by “and”; a condition that tells them apart may be missing. Equal entries are not always repeated.
Tests used:
[1] = 101 kPa, Liquid, Vibrating tube method
[2] = molar heat capacity at constant pressure; conditions: 101 kPa, Liquid, Small sample (50 mg) DSC
[3] = xn = mol fraction of the nth substance listed; conditions: 101 kPa, Liquid, Vibrating tube method, x2 = 0
[4] = molar heat capacity at constant pressure; xn = mol fraction of the nth substance listed; conditions: 101 kPa, Liquid, Small sample (50 mg) DSC, x2 = 0

N#Cc1ccccc1 [benzonitrile]
Conditions	mass density, [1] [kg/m3]	molar heat capacity at constant pressure, [2]
283.15 K	1013.99	163.43 J/K/mol
285.15 K	1012.21	163.9 J/K/mol
288.15 K	1009.55	164.61 J/K/mol and 164.63 J/K/mol
293.15 K	1005.12	165.82 J/K/mol
298.15 K	1000.69	167.06 J/K/mol
303.15 K	996.26	168.32 J/K/mol
308.15 K	991.83	169.59 J/K/mol
313.15 K	987.4	170.87 J/K/mol
318.15 K	982.96	172.15 J/K/mol

CCCCCCCC [octane]
Conditions	mass density, [1] [kg/m3]	molar heat capacity at constant pressure, [2] [J/K/mol]
283.15 K	710.76	248.2
288.15 K	706.76	250.1
293.15 K	702.74	252.06
298.15 K	698.71	254.08
303.15 K	694.66	256.16
308.15 K	690.58	258.28
313.15 K	686.49	260.45
318.15 K	682.37	262.66

CCCCCCCCC [nonane] + N#Cc1ccccc1
Conditions	mass density, [3] [kg/m3]	molar heat capacity at constant pressure, [4] [J/K/mol]
285.15 K	724.54	278.38
288.15 K	722.22	279.6
293.15 K	718.35	281.72
298.15 K	714.46	283.86
303.15 K	710.55	286.11
308.15 K	706.63	288.4
313.15 K	702.7	290.76

CCCCCCCC [octane] + N#Cc1ccccc1
Conditions	mass density, [3] [kg/m3]	molar heat capacity at constant pressure, [4] [J/K/mol]
283.15 K	710.76	248.2
288.15 K	706.76	250.1
293.15 K	702.74	252.06
298.15 K	698.71	254.08
303.15 K	694.66	256.16
308.15 K	690.58	258.28
313.15 K	686.49	260.45
318.15 K	682.37	262.66

CCCCCCCCC [nonane]
Conditions	mass density, [1] [kg/m3]	molar heat capacity at constant pressure, [2] [J/K/mol]
285.15 K	724.54	278.38
288.15 K	722.22	279.6
293.15 K	718.35	281.72
298.15 K	714.46	283.86
303.15 K	710.55	286.11
308.15 K	706.63	288.4
313.15 K	702.7	290.76

Source: the NIST ThermoML archive (doi:10.1021/je100145f)
